From patent publication US11998008B2, “Pesticides and methods of controlling pests” (The State of Israel, Ministry of Agriculture & Rural …, priority 2017, dated 2024) come the findings set out here.

Test [1] deals with S. rolfsii. The test is described as follows: Fungicidal activity assay on PDA in sealed Petri dish (growth inhibition and mortality). Type of test: cell-based, Sclerotinia rolfsii. The following applies: for MFC: Agroathelia rolfsii, read-out: M - Mortality, minimal concentration that killed the fungus; for I - Inhibition class: 2 days; for I - Inhibition, minimal concentration that inhibited the growth: concentration to which the class above belongs. The procedure:
(§1) Each compound was placed on a disconnected cover from an Eppendorf tube that was located in the middle of the Petri dish and a hyphae-containing plug of each test fungus was added to the culture plate. In exemplary procedures, the tested compounds trans-2-heptenal, trans-2-octenal were tested in comparison with octanal, trans-2-octen-1-ol, methyl trans-2-octenoate, trans-3-octen-2-one and 3-pentenenitrile. In addition, cyclic ketones as 2-cyclopenten-1-one, 2-cyclohexen-1-one and α-tetralone were also examined. Then, the culture plate was sealed with parafilm and incubated at room-temperature for 2 days, after which the growth of the test fungi in those dishes was compared with those in the test compound-free control dishes. At the end of the assay, the viability of each test fungus was evaluated by transferring inoculum plugs to fresh PDA plates and observing the growth that developed within the next 2 days. The test fungi used in this study included but were not limited to Alternaria alternata, Botrytis cinerea, Sclerotinia rolfsii, Penicillium digitatum, Fusarium oxysporum f. sp. radicis-cucumerinum and Rhizoctonia solani.

Test [2] concerns A. alternata. Described as above. Type of test: cell-based, Alternaria alternata. The note with it: for MFC: Alternaria alternata, read-out: M - Mortality, minimal concentration that killed the fungus. The procedure: as §1, with “In exemplary procedures, the fungicidial activity of the compounds listed in Table 2 were examined by activity assays as follow: Petri dishes, 90 mm in diameter, with air volume of 80 mL, contained 10-12 mL of growth medium comprising potato dextrose agar (PDA) (Acumedia, Lansing, Michigan, USA) amended with tetracycline at 12 μg/mL. Each” for “Each”

In test [3] the test system is P. digitatum. The test is described as above. The class given is cell-based, Penicillium digitatum. The note with it: for MFC: Penicillium digitatum, read-out: M - Mortality, minimal concentration that killed the fungus. The procedure:
as §1, with “In exemplary procedures, the fungicidial activity of the compounds listed in Table 2 were examined by activity assays as follow: Petri dishes, 90 mm in diameter, with air volume of 80 mL, contained 10-12 mL of growth medium comprising potato dextrose agar (PDA) (Acumedia, Lansing, Michigan, USA) amended with tetracycline at 12 μg/mL. Each” for “Each”

The subject of test [4] is B. cinerea. The test is described as above. The class given is cell-based, Botrytis cinerea. The note with it: for MFC: Botrytis cinerea, read-out: M - Mortality, minimal concentration that killed the fungus. The procedure: as §1, with “In exemplary procedures, the fungicidial activity of the compounds listed in Table 2 were examined by activity assays as follow: Petri dishes, 90 mm in diameter, with air volume of 80 mL, contained 10-12 mL of growth medium comprising potato dextrose agar (PDA) (Acumedia, Lansing, Michigan, USA) amended with tetracycline at 12 μg/mL. Each” for “Each”

Test [5] relates to R. solani. The test is described as follows: microbe, parasite or virus in culture. Type of test: cell-based. The note with it: R. solani; for MFC: Rhizoctonia solani, read-out: M - Mortality, minimal concentration that killed the fungus. The procedure: as §1
For test [6], the system named is test fungi. The experiment in a line: Fungicidal activity assay on PDA, summaries over the test fungi. The class given is cell-based. The following applies: for fungicidal activity in words: comparison within the series. The procedure:
as §1, with “In exemplary procedures, the fungicidial activity of the compounds listed in Table 2 were examined by activity assays as follow: Petri dishes, 90 mm in diameter, with air volume of 80 mL, contained 10-12 mL of growth medium comprising potato dextrose agar (PDA) (Acumedia, Lansing, Michigan, USA) amended with tetracycline at 12 μg/mL. Each” for “Each”

In test [7] the test system is F. oxysporum f. sp. radicis-cucumerium. The test is described as follows: Fungicidal activity assay on PDA in sealed Petri dish (growth inhibition and mortality). Type of test: cell-based, Fusarium oxysporum f. sp. radicis-cucumerinum. The note with it: for MFC: Fusarium oxysporum, read-out: M - Mortality, minimal concentration that killed the fungus. The procedure:
as §1

In test [8] the test system is Meloidogyne javanica second stage juveniles (J2s). The experiment in a line: Nematocidal activity: viability of J2 nematodes after 2 days exposure to the compound in a sealed box. Type of test: in vivo. The following applies: concentration to which the class of the same cell belongs. The text has this: In exemplary procedures, the sedentary root-knot nematode from the genus Meloidogyne javanica second stage juveniles (J2s) was propagated on greenhouse-grown nematode-susceptible tomato Lycopersicon esculentum cv. ‘Avigail 870’ (Hazera, Shikmim, Israel), and nematode eggs were bulk-extracted from the roots with 0.05% (v/v) sodium hypochlorite (NaOCl) followed by sucrose flotation and successive sievings through nylon filters of 300, 120, 60, and 30 μm mesh sizes (AD Sinun Technologies, Petach Tikvah, Israel). For hatching J2, extracted eggs were placed on 30-μm sieves (AD Sinun Technologies) in 0.01 M MES (2-(N-morpholino) ethanesulfonic acid hydrate) pH 6.5 buffer under aseptic conditions in darkness for 5 days, and hatching J2s were collected for further experiments.
Seven vials, each containing 300 J2 nematodes with 0.5 mL of 0.01 M 2-(N-morpholino)ethanesulfonic acid (MES) buffer, were exposed to cyclic ketone compounds in order to examine their nematocidal activity and reduction in viability. In addition, a humid environment in a sealed 1 L box was maintained by addition 5 ml of distilled H2O to a 50-mm Petri plate. The box was sealed after compound addition into each 50-mm Petri plate together with 5-250 mg of perlite particles and incubated for 2 days in the dark at 25±1° C. C5 and C6 saturated and α,β-unsaturated cyclic ketones were tested for their nematocidal activity. The J2 nematodes viability was examined following exposure to the cyclic ketone compounds, by a straightforward small-scale nematode extraction method, based on the traditional Baermann funnel method. Briefly, all nematode suspensions were loaded onto 30-μm (AD Sinun Technologies) filters (1.0-1.5 cm height, 1.1-2.0 cm^3 internal area), and the nematodes were washed twice with 300 μL of 0.01 M MES buffer in order to remove any residues. Then, filters holding nematodes were placed into 15 mL Falcon centrifuge tubes, each containing 900 μL of 0.01 M of MES buffer. These filters allow active passage of only living J2s while paralyzed or dead nematodes remain on top of the filter. The whole apparatus including the filter holding the nematodes and the Falcon tubes were placed in the dark for 3 h at 25±1° C. Then, the filters were removed and the viable nematodes, which were able to actively cross the filter toward the 0.01 M of MES buffer, were collected from the Falcon tube and counted using a Nematode Counting Slide (Chalex LLC, Portland, OR, USA) and a SV11 stereomicroscope (Zeiss, Jena, Germany).
Data were analyzed by the JMP 12 software package (SAS Inc., Cary, NC, USA). Mean numbers of viable J2s under various conditions were subjected to one-way analysis of variance (ANOVA), followed by the Tukey-Kramer multiple comparison test, with significance set at P<0.05.

Setting [9] is: S. rolfsii, NA + number = still viable in the highest concentration tested (given as >).
Where [10] appears, read: NA + number = still viable in the highest concentration tested (given as >).
[11] abbreviates: concentration to which the class above belongs.

Where two headings read alike, the source gives them in different places. A value given as a limit tells only on which side of the number the result lay.

`CC(C)=CCCC(C)=CC=O` [Citral]: the MFC is 25 µg/mL in test [1] (setting [9]), 25 µg/mL in test [2] (setting [10]), > 125 µg/mL in test [3] (setting [10]) and 25 µg/mL in test [4] (setting [10]).

In the case of `CC(C)=CCCC(C)=CCCC(C)=CCO` [Farnesol], the MFC in test [1] (setting [9]), in test [2] (setting [10]), in test [3] (setting [10]) and in test [4] (setting [10]) was > 1250 µg/mL each time.

In the case of `CCCC/C=C/C=O` [trans-2-heptenal], the MFC in test [1] (setting [9]) came to 6.25 µg/mL; in test [5] (setting [10]), 12.5 µg/mL; in test [2] (setting [10]), 12.5 µg/mL; in test [3] (setting [10]), 12.5 µg/mL; in test [4] (setting [10]), 125 µg/mL; in test [7] (setting [10]), 12.5 µg/mL. Moreover, the “concentration that completely inhibited the fungi growth” value in test [6] (dependent on the fungus tested) was 6.25-25 ppm. Further, the “concentrations at which fungi were not viable” value in test [6] (dependent on the fungus tested) was 6.25-125 ppm.

In the case of `CC(C)CC(=O)CC(C)C` [2,6-dimethyl-4-heptanone], the MFC in test [1] (setting [9]) was 2500 µg/mL; in test [2] (setting [10]) it was > 2500 µg/mL; in test [3] (setting [10]) it was > 2500 µg/mL; in test [4] (setting [10]), > 2500 µg/mL.

For the compound `O=C/C=C/c1ccccc1` [trans-cinnamaldehyde], in test [1] (setting [9]), the MFC was > 1250 µg/mL.

Regarding `CCCCC/C=C/C(=O)O` [trans-2-octenoic acid], the MFC in test [1] (setting [9]), in test [2] (setting [10]), in test [3] (setting [10]) and in test [4] (setting [10]) was > 125 µg/mL each time.

With R-(−)-Carvone, the “I - Inhibition class” value in test [1] (S. rolfsii) is “MI (Medium inhibition - 76-99% of growth inhibition)”; in test [2] (2 days), “SI (Strong inhibition - 100% of growth inhibition compared to control.)”; in test [3] (2 days), “MI (Medium inhibition - 76-99% of growth inhibition)”; in test [4] (2 days), “MI (Medium inhibition - 76-99% of growth inhibition)”. Moreover, the “M - Mortality, minimal concentration that killed the fungus” value in test [1] (setting [9]), in test [2] (setting [10]), in test [3] (setting [10]) and in test [4] (setting [10]) was > 1250 ppm throughout. Further, the “I - Inhibition, minimal concentration that inhibited the growth” value in test [1] (S. rolfsii) is 125 ppm; in test [2] (setting [11]), 125 ppm; in test [3] (setting [11]), 625 ppm; in test [4] (setting [11]), 25 ppm. Moreover, the “Activity: the most effective concentration” value in test [8] is listed as 250 ppm.

Turning to `CCCCCCCCCC=O` [Decanal], the MFC in test [1] (setting [9]), in test [5] (setting [10]) and in test [7] (setting [10]) was > 25 µg/mL in each case.

Turning to `CCCCC/C=C/CO` [trans-2-octen-1-ol], the MFC in test [1] (setting [9]) stood at 80 µg/mL; in test [2] (setting [10]), 125 µg/mL; in test [3] (setting [10]), 50 µg/mL; in test [4] (setting [10]), 500 µg/mL. Also, in test [6] (dependent on the fungus tested), the “concentration that completely inhibited the fungi growth” value is reported as 50 ppm.

With `CCCC/C=C/C(C)=O` [trans-3-octen-2-one], the MFC in test [1] (setting [9]), in test [2] (setting [10]), in test [3] (setting [10]) and in test [4] (setting [10]) was 50 µg/mL in each case. Besides, in test [6] (dependent on the fungus tested), the “concentration that completely inhibited the fungi growth” value was 50 ppm.

Consider `CCCCCCCCCCCC=O` [Lauric aldehyde], for which the “I - Inhibition class” value in test [1] (S. rolfsii), in test [5] (2 days) and in test [7] (2 days) was “NI (<50% growth inhibition)” in each case. Moreover, the “M - Mortality, minimal concentration that killed the fungus” value in test [1] (setting [9]), in test [5] (setting [10]) and in test [7] (setting [10]) was > 25 ppm throughout. In addition, the “I - Inhibition, minimal concentration that inhibited the growth” value in test [1] (S. rolfsii), in test [5] (setting [11]) and in test [7] (setting [11]) was 25 ppm throughout. The “fungicidal activity in words” value in test [6] is reported as “lower activity”.

Regarding `CCCCCC/C=C/C=O` [trans-2-nonenal], the MFC is > 25 µg/mL in test [1] (setting [9]), > 25 µg/mL in test [5] (setting [10]) and 6.25 µg/mL in test [7] (setting [10]).

On to `CCCCC/C=C/C(=O)OC` [Methyl trans-2-octenoate], for which the MFC in test [1] (setting [9]), in test [2] (setting [10]), in test [3] (setting [10]) and in test [4] (setting [10]) was 125 µg/mL each time. Besides, in test [6] (dependent on the fungus tested), the “concentration that completely inhibited the fungi growth” value was 125 ppm.

For `CC=CCC#N` [3-pentenenitrile], the MFC in test [1] (setting [9]), in test [5] (setting [10]) and in test [7] (setting [10]) was > 25 µg/mL each time.

Turning to `COc1ccc(C=O)cc1` [p-Anisaldehyde], the MFC in test [1] is > 1250 µg/mL.

For the compound `CCCCCCC/C=C/C=O` [trans-2-decenal], the “fungicidal activity in words” value in test [6] was “lower activity”.

As for `CCOC(=O)C=Cc1ccccc1` [Ethyl cinnamate], the MFC in test [1] (setting [9]), in test [2] (setting [10]), in test [3] (setting [10]) and in test [4] (setting [10]) was > 1250 µg/mL in each case.

Consider `CCCCCCCC=O` [Octanal], for which the figures for the MFC in test [1] (setting [9]), in test [5] (setting [10]) and in test [7] (setting [10]) were > 25 µg/mL, 12.5 µg/mL and > 25 µg/mL, respectively. Also, in test [6], the “fungicidal activity in words” value was “less fungicidal efficiency”.

With `CCCC(=O)CCC` [4-heptanone], the MFC is 2500 µg/mL in test [1] (setting [9]), 2500 µg/mL in test [2] (setting [10]), > 2500 µg/mL in test [3] (setting [10]) and 1250 µg/mL in test [4] (setting [10]).

With `CCCCCCCCC=O` [Nonanal], the MFC in test [1] (setting [9]) was 25 µg/mL; in test [5] (setting [10]), > 25 µg/mL; in test [7] (setting [10]) it was > 25 µg/mL.

In the case of `CCC/C=C/C=O` [trans-2-hexen-1-al], the MFC in test [1] (setting [9]) is 12.5 µg/mL; in test [5] (setting [10]), 12.5 µg/mL; in test [7] (setting [10]), 25 µg/mL.

With `CC/C=C/C=O` [trans-2-pentenal], the MFC in test [1] (setting [9]), in test [5] (setting [10]), in test [2] (setting [10]), in test [3] (setting [10]), in test [4] (setting [10]) and in test [7] (setting [10]) was 25 µg/mL each time.
